# Literature values as cited in patent publication US11007152B2, “Pharmaceutical composition comprising amorphous lenalidomide and an antioxidant” (Synthon B.V., priority 2015, dated 2021).
compound,measurement,value
"Nc1cccc2c1CN(C1CCC(=O)NC1=O)C2=O (racemic) [Lenalidomide, (RS)-3-(4-Amino-1-oxo 1,3-dihydro-2H-isoindol-2-yl)piperidine-2,6-dione]",solubility in water,slightly soluble
